Patent publication US6426355B1, “Heterocyclic carboxamide-containing thiourea inhibitors of herpes viruses containing phenylenediamine group” (American Home Products, priority 1998, dated 2002)
In brackets after ≈: the same amount, converted by molar mass.

How the values were obtained:
[1] = system: HCMV recombinant mutant virus (RV145); assay: HCMV microtiter plate assay (beta-glucuronidase reporter); assay type: cell-based, Human Cytomegalovirus; settings: for IC50 (ug/ml) HCMV: HCMV in human foreskin fibroblasts; for IC50: Human betaherpesvirus 5, Fibroblast, read-out: IC50 (ug/ml) HCMV
In short: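 Human foreskin fibroblasts were infected with RV145 in the presence of inhibitor. β-glucuronidase under a viral promoter served as the replication marker. At 96 h post-infection, lysates in pH 7.0 phosphate with Triton X-100/sarkosyl were assayed colorimetrically or fluorometrically, and IC50 was estimated from varying inhibitor amounts.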

VZV strain Ellen = assay: VZV Antiviral (ELISA) assay; assay type: cell-based; settings: for IC50 (ug/ml) VZV / % inhibition 10 ug/ml VZV: VZV strain Ellen in HFF cells; for % inhibition 10 ug/ml VZV: at 10 ug/ml; for IC50: Human alphaherpesvirus 3, VZV strain Ellen in HFF cells, read-out: IC50 (ug/ml) VZV; for inhibition at 10 µg/mL: Human alphaherpesvirus 3, read-out: % inhibition 10 ug/ml VZV, at 10 ug/ml, VZV strain Ellen in HFF cells
In short: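 First, fibroblasts are infected at multiplicity below 0.1 and kept overnight. The harvested cell mixture then goes onto compound-containing wells for three days at 37° C. Finally, cells are fixed and viral gpII is measured by fluorogenic ELISA.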

HSV-1 = assay: HSV Antiviral (ELISA) assay; assay type: cell-based; settings: for IC50 (ug/ml) HSV: HSV-1 in Vero cells; for IC50: Human alphaherpesvirus 1, HSV-1 in Vero cells, read-out: IC50 (ug/ml) HSV
In short: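 Vero cells in DMEM/2% FBS pretreated with compound 30 min before HSV-1 infection (MOI 0.006), then ~24 h at 37 °C. Viral gD detected by ELISA with β-galactosidase secondary and 4-methylumbelliferyl-galactoside (ex 365/em 450 nm); IC50 from fluorescence versus untreated infected cells.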

| SMILES | IC50 (ug/ml) HCMV [1] [µg/mL] | IC50 (ug/ml) VZV (VZV strain Ellen) | % inhibition 10 ug/ml VZV (VZV strain Ellen) [%] | IC50 (ug/ml) HSV (HSV-1) [µg/mL] | IC50 [1] [µg/mL] | IC50 (VZV strain Ellen) [µg/mL] | IC50 (HSV-1) [µg/mL] | inhibition at 10 µg/mL (VZV strain Ellen) [%] |
| --- | --- | --- | --- | --- | --- | --- | --- | --- |
| O=C(Nc1ccc(NC(=S)Nc2cccc(CO)c2)cc1)c1ccco1 [Example 488] | 1.2 (≈ 3.27 µM) | >10 µg/mL | 13 | >10 |  |  |  |  |
| CC(C)c1cccc(NC(=S)Nc2ccc(NC(=O)c3ccco3)cc2)c1 [Example 451] | 0.15 (≈ 0.395 µM) | >10 µg/mL |  | 8 (≈ 21.1 µM) |  |  |  |  |
| COc1cc(OC)c(NC(=S)Nc2ccc(NC(=O)c3ccccn3)cc2)cc1Cl [Example 224] | 0.8 (≈ 1.81 µM) | >10 µg/mL | 30 | 3.5 (≈ 7.9 µM) |  |  |  |  |
| O=C(Nc1ccc(NC(=S)Nc2cccc(Br)c2)cc1)c1csnn1 [Example 513] | 0.011 (≈ 0.0253 µM) | >10 µg/mL | 10 | >10 |  |  |  |  |
| O=C(Nc1ccc(NC(=S)NCCc2ccc(F)cc2)cc1)c1ccco1 [Example 561] | 0.05 (≈ 0.13 µM) | 8 µg/mL (≈ 20.9 µM) |  | >10 |  |  |  |  |
| Nc1c(Cl)cc(C(F)(F)F)cc1NC(=S)Nc1ccc(NC(=O)c2ccco2)cc1 [Example 530] | 0.15 (≈ 0.33 µM) | 6 µg/mL (≈ 13.2 µM) | 96 | 5 (≈ 11 µM) |  |  |  |  |
| Cc1ccc(NC(=S)Nc2ccc(NC(=O)c3ccco3)cc2)cc1Cl [Example 233] | 0.09 (≈ 0.233 µM) | >10 µg/mL | 30 | >10 |  |  |  |  |
| COc1cc(C)c(Cl)cc1NC(=S)Nc1ccc(NC(=O)c2ccco2)cc1 [Example 353] | 0.04 (≈ 0.0962 µM) | 7 µg/mL (≈ 16.8 µM) | 86 | 0.6 (≈ 1.44 µM) |  |  |  |  |
| COc1cccc(CCNC(=S)Nc2ccc(NC(=O)c3ccco3)cc2)c1 [Example 607] | 0.09 (≈ 0.228 µM) | >10 µg/mL |  | 8 (≈ 20.2 µM) |  |  |  |  |
| COc1cc(OC)c(NC(=S)Nc2ccc(NC(=O)c3ccc4ccccc4n3)cc2)cc1Cl [Example 159] | >10 | >10 µg/mL | 62 | >10 |  |  |  |  |
| CCN(CC)CC(=O)Nc1ccc(NC(=S)Nc2ccc(NC(=O)c3ccco3)cc2)cc1Cl [Example 413] | 0.081 (≈ 0.162 µM) | 5 µg/mL (≈ 10 µM) | 103 | 5 (≈ 10 µM) |  |  |  |  |
| O=C(Nc1ccc(NC(=S)Nc2cc(N3CCC(O)C3)cc(C(F)(F)F)c2)cc1)c1csnn1 (stereo not drawn) [Example 595] | 0.022 (≈ 0.0433 µM) | 3 µg/mL (≈ 5.9 µM) |  | >10 |  |  |  |  |
| O=C(Nc1ccc(NC(=S)Nc2ccc(Cl)c(C(F)(F)F)c2)cc1)c1csc(-c2ccccc2)n1 [Example 1141, 2-Phenyl-thiazole-4-carboxylic acid {4-[3-(4-chloro-3-trifluoromethyl-phenyl)-thioureido]-phenyl}-amide] |  |  |  |  | 1.9 (≈ 3.56 µM) | > 10 | > 10 |  |
| Nc1cc(Cl)cc(NC(=S)Nc2ccc(NC(=O)c3ccco3)cc2)c1 [Example 435] | 0.08 (≈ 0.207 µM) | 0.9 µg/mL (≈ 2.33 µM) | 94 | 10 (≈ 25.8 µM) |  |  |  |  |
| O=C(Nc1ccc(NC(=S)NCCc2cc(C(F)(F)F)cc(C(F)(F)F)c2)cc1)c1csnn1 [Example 599] | 0.005 (≈ 0.00962 µM) | >10 µg/mL |  | >10 |  |  |  |  |
| CC(NC(=S)Nc1ccc(NC(=O)c2csnn2)cc1)c1ccc(Br)cc1 (stereo not drawn) [Example 647] | 0.007 (≈ 0.0151 µM) | 0.1 µg/mL (≈ 0.216 µM) |  | >10 |  |  |  |  |
| COc1ccc(CCNC(=S)Nc2ccc(NC(=O)c3csnn3)cc2)cc1OC [Example 639] | 0.07 (≈ 0.158 µM) | >10 µg/mL |  | >10 |  |  |  |  |
| Cc1cccc(NC(=S)Nc2ccc(NC(=O)c3csnn3)cc2)c1 [Example 456] | 0.07 (≈ 0.189 µM) | >10 µg/mL | 12 | >10 |  |  |  |  |

| SMILES | IC50 (ug/ml) HCMV [1] [µg/mL] | IC50 (ug/ml) VZV (VZV strain Ellen) | % inhibition 10 ug/ml VZV (VZV strain Ellen) [%] | IC50 (ug/ml) HSV (HSV-1) [µg/mL] | IC50 [1] [µg/mL] | IC50 (VZV strain Ellen) [µg/mL] | IC50 (HSV-1) [µg/mL] | inhibition at 10 µg/mL (VZV strain Ellen) [%] |
| --- | --- | --- | --- | --- | --- | --- | --- | --- |
| COc1c(Cl)cc(NC(=S)Nc2ccc(NC(=O)c3ccco3)cc2)cc1Cl [Example 875, Furan-2-carboxylic acid {4-[3-(3,5-dichloro-4-methoxy-phenyl)-thioureido]-phenyl}-amide] |  |  |  |  | > 2.2 | > 10 | > 50 | 18 |
| Nc1ccc(Cl)cc1NC(=S)Nc1ccc(NC(=O)c2ccco2)cc1 [Example 440] | 0.3 (≈ 0.775 µM) | 9 µg/mL (≈ 23.3 µM) |  | 1 (≈ 2.58 µM) |  |  |  |  |
| O=C(Nc1ccc(NC(=S)Nc2ccc(F)c(Cl)c2)cc1)c1ccccc1F [Example 972, N-{4-[3-(3-Chloro-4-fluoro-phenyl)-thioureido]-phenyl} -2-fluoro-benzamide] |  |  |  |  | 0.006 (≈ 0.0144 µM) | > 15 | > 10 | 95 |
| O=C(Nc1ccc(NC(=S)NCc2cccc(Cl)c2)cc1)c1ccco1 [Example 510] | 0.04 (≈ 0.104 µM) | >10 µg/mL | 19 | 8 (≈ 20.7 µM) |  |  |  |  |
| NNC(=O)c1cccc(NC(=S)Nc2ccc(NC(=O)c3ccco3)cc2)c1 [Example 447] | >10 | >10 µg/mL |  | >10 |  |  |  |  |
| O=C(Nc1ccc(NC(=S)Nc2cccc(Cl)c2)cc1)c1ccccc1F [Example 994, N-{4-[3-(3-Chloro-phenyl)-thioureido]-phenyl}-2-fluoro-benzamide] |  |  |  |  | 0.07 (≈ 0.175 µM) | > 10 | > 10 |  |
| CC(NC(=S)Nc1ccc(NC(=O)c2ccc3ccccc3n2)cc1)c1ccc(F)cc1 (stereo not drawn) [Example 796] | 4 (≈ 9 µM) | >7.5 µg/mL |  | >10 |  |  |  |  |
| COc1cc(OC)c(NC(=S)Nc2ccc(NC(=O)c3ccc([N+](=O)[O-])o3)cc2)cc1Cl [Example 161] | >10 | 5 µg/mL (≈ 10.5 µM) | 113 | 3 (≈ 6.29 µM) |  |  |  |  |
| COc1cc(OC)c(NC(=S)Nc2ccc(NC(=O)c3ccc(C)s3)cc2)cc1Cl [Example 145] | >10 | >15 µg/mL | 51 | 2 (≈ 4.33 µM) |  |  |  |  |
| O=C(Nc1ccc(NC(=S)Nc2ccc(Br)c(C(F)(F)F)c2)cc1)c1csnn1 [Example 548] | 0.008 (≈ 0.0159 µM) | >lo |  | >10 |  |  |  |  |
| COc1cc(OC)c(NC(=S)Nc2ccc(NC(=O)c3ccoc3)cc2)cc1Cl [Example 166] | >10 | >10 µg/mL | 30 | 9 (≈ 20.8 µM) |  |  |  |  |
| O=C(Nc1ccc(NC(=S)Nc2ccc(Cl)c(Cl)c2)cc1)c1csnn1 [Example 964, [1,2,3]Thiadiazole-4-carboxylic acid {4-[3-(3,4-dichloro-phenyl)-thioureido]-phenyl}-amide] |  |  |  |  | 0.03 (≈ 0.0707 µM) | > 10 | > 10 | 9 |
| C[C@H](NC(=S)Nc1ccc(NC(=O)c2cscn2)nc1)c1cc(C(F)(F)F)cc(C(F)(F)F)c1 [Example 91] | 0.018 (≈ 0.0346 µM) | >10 µg/mL | 6 | >10 |  |  |  |  |
| COC(=O)c1cc(NC(=S)Nc2ccc(NC(=O)c3ccco3)cc2)cc(C(=O)OC)c1 [Example 469] | 0.1 (≈ 0.221 µM) | >10 µg/mL | 54 | >10 |  |  |  |  |
| COc1cc(OC)c(NC(=S)Nc2ccc(NC(=O)c3cccn3C)cc2)cc1Cl [Example 147] | >50 | >10 µg/mL | 42 | 10 (≈ 22.5 µM) |  |  |  |  |
| CCCCc1nc(C(=O)Nc2ccc(NC(=S)Nc3ccc(Cl)c(Cl)c3)cc2)cs1 [Example 1134, 2-Butyl-thiazole-4-carboxylic acid {4-[3-(3,4-dichloro-phenyl)-thioureido]-phenyl}-amide] |  |  |  |  | 1 (≈ 2.09 µM) | 1.6 (≈ 3.34 µM) | 2.4 (≈ 5.01 µM) |  |
| O=C(Nc1ccc(CNC(=S)Nc2ccc(Cl)c(C(F)(F)F)c2)cc1)c1csnn1 [Example 631] | 0.15 (≈ 0.318 µM) | 6 µg/mL (≈ 12.7 µM) |  | 6 (≈ 12.7 µM) |  |  |  |  |
| CSc1ccc(NC(=S)Nc2ccc(NC(=O)c3ccco3)cc2)cc1Cl [Example 897, Furan-2-carboxylic acid {4-[3-(3-chloro-4-methylsulfanyl-phenyl)-thioureido]-phenyl}-amide] |  |  |  |  | 0.037 (≈ 0.0885 µM) | > 10 | > 10 | 62 |
